Laboratory results published in patent publication US20240116877A1, “KIT KINASE INHIBITORS AND METHODS OF USE THEREOF” (Deciphera Pharmaceuticals, LLC, priority 2021, published 2024).
Where two headings read alike, the source gives them in different places.

Experiments:
[1] = system: Ba/F3 KIT mutant cells; experiment: Ba/F3 mutant KIT Cell Proliferation Assays (resazurin); format: cell-based; settings: Mus musculus, BaF3
In short: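 IC50 values come from resazurin fluorescence (ex 540, em 600) after 5 h dye exposure, added as a 440 μM solution. Cells were IL-3-independent Ba/F3 expressing mutant KIT from a lentiviral vector, puromycin-selected.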

[2] = molecular target: c-KIT kinase (uKIT) (Homo sapiens (Human), UniProt P10721); experiment: Biochemical Assay for uKIT (coupled pyruvate kinase/lactate dehydrogenase assay); settings: Inhibition of biochemical activity of uKIT kinase; 1 mM ATP
c-KIT kinase (uKIT), sequence (P10721 other isoform, or with tags, fused parts or gaps): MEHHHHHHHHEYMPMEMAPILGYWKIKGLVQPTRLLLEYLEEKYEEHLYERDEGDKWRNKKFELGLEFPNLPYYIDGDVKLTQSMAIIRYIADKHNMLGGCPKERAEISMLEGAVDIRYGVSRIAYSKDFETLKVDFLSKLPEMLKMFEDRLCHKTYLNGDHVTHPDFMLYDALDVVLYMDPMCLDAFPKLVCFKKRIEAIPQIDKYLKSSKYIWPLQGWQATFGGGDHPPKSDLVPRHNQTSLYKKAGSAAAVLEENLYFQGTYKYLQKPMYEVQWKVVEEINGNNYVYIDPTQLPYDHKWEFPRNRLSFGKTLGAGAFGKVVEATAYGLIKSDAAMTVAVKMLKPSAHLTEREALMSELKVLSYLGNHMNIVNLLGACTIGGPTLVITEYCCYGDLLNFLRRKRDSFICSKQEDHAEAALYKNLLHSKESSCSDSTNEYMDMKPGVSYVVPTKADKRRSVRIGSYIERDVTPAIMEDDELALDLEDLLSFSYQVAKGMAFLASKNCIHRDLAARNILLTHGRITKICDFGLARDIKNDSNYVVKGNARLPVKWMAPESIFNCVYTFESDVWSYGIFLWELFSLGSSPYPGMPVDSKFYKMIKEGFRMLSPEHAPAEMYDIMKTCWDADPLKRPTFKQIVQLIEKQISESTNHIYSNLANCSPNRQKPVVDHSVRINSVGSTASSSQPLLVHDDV
In short: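 IC50 from percent inhibition of reaction rate over 2-3 h, relative to no-compound and known-inhibitor controls. KIT enzyme (16 nM or 4.36 nM, two sequences) ran with 1 mM ATP and 0.7 mg/mL PE4Y in Tris pH 7.5, 30° C; ATP turnover coupled to NADH loss at 340 nm.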

[3] = system: GIST 430 cells; experiment: GIST 430 Cell Proliferation Assay (resazurin); format: cell-based; settings: Homo sapiens; GIST430 cell proliferation
In short: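 Five thousand cells per well were exposed to serially diluted compound in complete growth medium for 115 h at 37 degrees Celsius, 5% CO2. Resazurin was then added for a further 5 h, fluorescence read at 540 nm excitation/600 nm emission, and IC50 values calculated.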

[4] = Ba/F3 KIT AYdup-V654A mutant cell proliferation, read-out: AYdup-V654A IC50
[5] = Ba/F3 KIT exon11del-V654A mutant cell proliferation, read-out: exon11del-V654A IC50
[6] = Ba/F3 KIT exon11del-Y823D mutant cell proliferation, read-out: exon11del-Y823D IC50
[7] = Ba/F3 KIT AYdup mutant cell proliferation, read-out: AYdup IC50
[8] = Ba/F3 KIT AYdup-D816G mutant cell proliferation, read-out: AYdup-D816G IC50

Row | Structure (SMILES) | IC50 [1, 4] | IC50 [1, 5] | IC50 [1, 6] | IC50 [2] | IC50 [3] | IC50 [1, 7] | IC50 [1, 8]
1 | COCCOc1cc(F)c2c(Nc3ccc(NC(=O)COCC4CC4)cc3)ncnc2c1 [Example 57] | 100 to 1000 nM | 10 to 100 nM | > 1000 nM | 100 to 1000 nM | 10 to 100 nM |  | 
2 | COCCOc1cc(F)c2c(Nc3ccc(NC(=O)COCC4CCCO4)cc3)ncnc2c1 (stereo not shown) [Example 58] | 100 to 1000 nM | 100 to 1000 nM | > 1000 nM | 10 to 100 nM | 10 to 100 nM |  | 
3 | COCCOc1cc(F)c2c(Nc3ccc(NC(=O)COCC4CCOC4)cc3)ncnc2c1 (stereo not shown) [Example 59] | 100 to 1000 nM | 10 to 100 nM | > 1000 nM | 10 to 100 nM | 10 to 100 nM |  | 
4 | COCCOc1cc(F)c2c(Nc3ccc(NC(=O)C(F)(F)C(=O)NCC(C)(C)C)cc3)ncnc2c1 [Example 60] | 10 to 100 nM | 10 to 100 nM | 100 to 1000 nM | 10 to 100 nM | 10 to 100 nM |  | 
5 | COCCOc1cc(F)c2c(Nc3ccc(NC(=O)NCCC4CCOCC4)cc3)ncnc2c1 [Example 61] | 10 to 100 nM | ≤ 10 nM | 10 to 100 nM | 10 to 100 nM | ≤ 10 nM | ≤ 10 nM | ≤ 10 nM
6 | COCCOc1cc(F)c2c(Nc3ccc(NC(=O)CCC4CCN(C)CC4)cc3)ncnc2c1 [Example 62] | 100 to 1000 nM | 100 to 1000 nM |  | > 1000 nM | > 1000 nM |  | 
7 | COCCOc1cc(F)c2c(Nc3ccc(NC(=O)CCC4CCOCC4)cc3)ncnc2c1 [Example 63] | 100 to 1000 nM | 10 to 100 nM | > 1000 nM | 10 to 100 nM | 10 to 100 nM |  | 
8 | COCCOc1cc(F)c2c(Nc3ccc(NC(=O)NCCC(C)(C)F)c(F)c3)ncnc2c1 [Example 64] | 100 to 1000 nM | 10 to 100 nM | 100 to 1000 nM | 10 to 100 nM | 10 to 100 nM |  | 
9 | COCCOc1cc(F)c2c(Nc3ccc(NC(=O)NCCC(C)(C)F)cc3F)ncnc2c1 [Example 65] | 10 to 100 nM | ≤ 10 nM | 100 to 1000 nM | ≤ 10 nM | 10 to 100 nM |  | 
10 | COCCOc1cc(F)c2c(Nc3ccc(NC(=O)CN(C)C(=O)C(C)C)cc3)ncnc2c1 [Example 66] | 10 to 100 nM | 10 to 100 nM | > 1000 nM | 10 to 100 nM | 10 to 100 nM |  | 
11 | COCCOc1cc(F)c2c(Nc3ccc(NC(=O)CCC(=O)N(C)C(C)C)cc3)ncnc2c1 [Example 67] | 100 to 1000 nM | 10 to 100 nM | 10 to 100 nM | 10 to 100 nM | 100 to 1000 nM |  | 
12 | CN(C)CCOc1cc(F)c2c(Nc3ccc(NC(=O)NCCC(C)(C)F)cc3)ncnc2c1 [Example 68] | 10 to 100 nM | ≤ 10 nM | 100 to 1000 nM | ≤ 10 nM | ≤ 10 nM |  | 
13 | COCCOc1cc(F)c2c(Nc3ccc(NC(=O)CC4CCC(C)(C)CC4)cc3)ncnc2c1 [Example 69] | 10 to 100 nM | 10 to 100 nM | 10 to 100 nM | ≤ 10 nM | ≤ 10 nM | 10 to 100 nM | ≤ 10 nM
14 | COCCOc1cc(F)c2c(Nc3ccc(NC(=O)NCCC(C)(C)C#N)cc3F)ncnc2c1 [Example 70] | 100 to 1000 nM | 100 to 1000 nM | 100 to 1000 nM | > 1000 nM | > 1000 nM |  | 
15 | COCCOc1cc(F)c2c(Nc3ccc(NC(=O)C4(C(=O)NCC(C)C)CC4)cc3)ncnc2c1 [Example 71] | 100 to 1000 nM | 10 to 100 nM | > 1000 nM | 10 to 100 nM | 100 to 1000 nM |  | 
16 | COCCOc1cc(F)c2c(Nc3ccc(NC(=O)C4(C(=O)N(C)CC(C)C)CC4)cc3)ncnc2c1 [Example 72] | > 1000 nM | 100 to 1000 nM |  | > 1000 nM | 100 to 1000 nM |  | 

Row | Structure (SMILES) | IC50 [1, 4] | IC50 [1, 5] | IC50 [1, 6] | IC50 [2] | IC50 [3] | IC50 [1, 7] | IC50 [1, 8]
17 | COCCOc1cc(F)c2c(Nc3ccc(NC(=O)CC(=O)N(C)C(C)C)cc3)ncnc2c1 [Example 74] | 10 to 100 nM | 10 to 100 nM | 100 to 1000 nM | 10 to 100 nM | 10 to 100 nM |  | 
18 | COCCOc1cc(F)c2c(Nc3ccc(NC(=O)C4(C(=O)NCCC(C)(C)F)CC4)cc3)ncnc2c1 [Example 75] | 100 to 1000 nM | 10 to 100 nM | > 1000 nM | 10 to 100 nM | 100 to 1000 nM |  | 
19 | COCCOc1cc(F)c2c(Nc3ccc(NC(=O)CNC(=O)CC(C)C)cc3)ncnc2c1 [Example 76] | 10 to 100 nM | ≤ 10 nM | 100 to 1000 nM | 10 to 100 nM | ≤ 10 nM |  | 
20 | COCCOc1cc(F)c2c(Nc3ccc(NC(=O)CC(=O)NCC4CC4)cc3)ncnc2c1 [Example 77] | 10 to 100 nM | ≤ 10 nM | 100 to 1000 nM | 10 to 100 nM | 10 to 100 nM |  | 
21 | COCCOc1cc(F)c2c(Nc3ccc(NC(=O)CC(=O)NCC4CCOCC4)cc3)ncnc2c1 [Example 78] | 100 to 1000 nM | 10 to 100 nM | > 1000 nM | 100 to 1000 nM | 100 to 1000 nM |  | 
22 | COCCOc1cc(F)c2c(Nc3ccc(NC(=O)CC(=O)NCC4CCCC4)cc3)ncnc2c1 [Example 79] | 10 to 100 nM | 10 to 100 nM | 100 to 1000 nM | 10 to 100 nM | 10 to 100 nM |  | 
23 | COCCOc1cc(F)c2c(Nc3ccc(NC(=O)CC(=O)NCC(C)C)cc3)ncnc2c1 [Example 81] | 10 to 100 nM | 10 to 100 nM | > 1000 nM | 10 to 100 nM | 10 to 100 nM |  | 
24 | COCCOc1cc(F)c2c(Nc3ccc(NC(=O)CC(=O)NCCC(C)(C)C)cc3)ncnc2c1 [Example 82] | 10 to 100 nM | ≤ 10 nM | 100 to 1000 nM | ≤ 10 nM | 10 to 100 nM |  | 
25 | COCCOc1cc(F)c2c(Nc3ccc(NC(=O)CC(=O)NCCN(C)C)cc3)ncnc2c1 [Example 83] |  | > 1000 nM |  | > 1000 nM | > 1000 nM |  | 
26 | COCCOc1cc(F)c2c(Nc3ccc(NC(=O)CC(=O)NCCN4CCOCC4)cc3)ncnc2c1 [Example 84] |  | 100 to 1000 nM |  | > 1000 nM | > 1000 nM |  | 
27 | COCCOc1cc(F)c2c(Nc3ccc(NC(=O)CC(=O)NCC4(C)CC4)cc3)ncnc2c1 [Example 85] | 10 to 100 nM | ≤ 10 nM | 100 to 1000 nM | ≤ 10 nM | ≤ 10 nM |  | 
28 | COCCOc1cc(F)c2c(Nc3ccc(NC(=O)CC(=O)NCC(C)(C)COC)cc3)ncnc2c1 [Example 86] | 10 to 100 nM | 10 to 100 nM | > 1000 nM | 10 to 100 nM | 10 to 100 nM |  | 
29 | COCCOc1cc(F)c2c(Nc3ccc(NC(=O)CC(=O)NCC(C)(C)C(F)(F)F)cc3)ncnc2c1 [Example 88] | 10 to 100 nM | ≤ 10 nM | 10 to 100 nM | 10 to 100 nM | ≤ 10 nM | ≤ 10 nM | ≤ 10 nM
30 | COCCOc1cc(F)c2c(Nc3ccc(NC(=O)CC(=O)NCC(C)(C)F)cc3)ncnc2c1 [Example 89] | 10 to 100 nM | 10 to 100 nM | 100 to 1000 nM | 10 to 100 nM | 10 to 100 nM |  | 
31 | COCCOc1cc(F)c2c(Nc3ccc(NC(=O)CC(=O)NCC4CCC4)cc3)ncnc2c1 [Example 90] | > 1000 nM | ≤ 10 nM | 100 to 1000 nM | ≤ 10 nM | 10 to 100 nM |  | 
32 | COCCOc1cc(F)c2c(Nc3ccc(NC(=O)CC(=O)NCC4CCCCC4)cc3)ncnc2c1 [Example 91] | 10 to 100 nM | 10 to 100 nM | 100 to 1000 nM | ≤ 10 nM | 10 to 100 nM |  | 
